From patent US20190246658A1, “METHODS OF HANDLING PAPAYA” (AGROFRESH INC., priority 2013, published 2019)

Tests used:
Type in all cases: in vivo, papaya
Papayas ‘Golden’ [1] = test: Example 1: percentage of fruits with ideal internal pulp firmness (2.5-7.0 lbf); conditions: 100 ppb of MCP, ideal = between 2.5 and 7.0 lbf
Procedure: Papayas ‘Golden’ were harvested in Linhares—Espírito Santo—Brazil. The harvested fruits were packed in MAP Bags and put in cardboard boxes.
(§1) The appropriate weight of papayas was placed in each bag after harvest. Bags were placed in the same cardboard boxes used to export the fruits. Papayas then were cold stored at (11° C.) at the Laboratory.
(§2) The Test Protocol that was used was as follows. 36 MAP bags were packed. Each bag held approximately 3.8 kg (8.4 lb) of papayas. One such bag was packed in each cardboard box. Total weight of papayas in MAP bags was approximately 137 kg. Approximately 91 kg of papayas were placed into cardboard boxes identical to those used for the MAP bags.
(§3) The MAP-packaged papayas were packaged as follows: Nine fruits, approximately 3.8 kg were carefully placed into microperforated bags, and the bags were sealed by twisting the open side of the bag, folding down the twisted end, and placing a rubber band around the twisted and folded end of the bag.
All papayas were kept at cold temperature (11° C.) during 27 days and after that the fruits (packed in MAP bags or not) were put in room temperature (22° C.) during 8 days.
One day after harvest, when the papayas had around 25 lbf of average firmness, each treatment set was marked, placed in a hermetical chamber at cold temperature (11° C.). All chambers were of equal size and packed the same way. Treatment was for 12 hours. In the chambers for the 3 “MCP” treatment groups, at the beginning of the treatment period, SmartFresh™ were placed in the chamber. The amount of SmartFresh™ was chosen to achieve the indicated concentration of 1-methylcyclopropene in the atmosphere of the chamber.
(§4) For the Pulp Firmness evaluation two measurements where done, one for External Firmness and another for Internal Firmness. For External Firmness, the papayas had the skin removed with a peeler and the pulp firmness was measured with a Firmness Texture Analyzer (FTA) with a probe of 8 mm. For Internal Firmness, the papayas were cut transversally and a measurement close to the center of the fruit was taken with the FTA.
(§5) The desirable internal pulp firmness for consumption of papayas is between 2.5 and 7.0 lbf. The percentage of fruits with internal pulp firmness between 2.5 and 7.0 lbf was calculated.

Papayas ‘Golden’ [2] = test: Example 2 (yellow stage): pulp firmness, external; conditions: for Pulp Firmness - External: 500 ppb of MCP
Procedure: (§6) A similar test to Example 1 but papayas are tested during their yellow stage. Papayas ‘Golden’ were harvested in Linhares—Espírito Santo—Brazil. The fruits were packed in MAP Bags and put in cardboard boxes.
(§7) The fruits were first left at room temperature during 3 days to reach yellow maturity stage.
(§8) After that the appropriate weight of papayas was placed in each bag after harvest. Bags were placed in the same cardboard boxes used to export the fruits. Papayas then were cold stored at (11° C.) at the Laboratory.
as §2, with “18” for “36”, “68” for “137”, “68” for “91”
as §3
(§9) All papayas were kept at cold temperature (11° C.) during 26 days and after that the fruits (packed in MAP bags or not) were put in room temperature (22° C.) during 8 days.
(§10) After the 3 days for maturation at room temperature, when the papayas had around 5 lbf of average firmness, each treatment set was marked, placed in a hermetical chamber at cold temperature (11° C.). All chambers were of equal size and packed the same way. Treatment was for 12 hr. In the chambers for the 2 “MCP” treatment groups, at the beginning of the treatment period, SmartFresh™ were placed in the chamber. The amount of SmartFresh™ was chosen to achieve the indicated concentration of 1-methylcyclopropene in the atmosphere of the chamber.
(§11) Evaluation for skin color and firmness was as follows. Day “zero” was the day the papayas were removed from the chamber and placed in storage.
as §4, with “were” for “where”

Papayas ‘Golden’ [3] = test: Example 2 (yellow stage): percentage of fruits with ideal internal pulp firmness (2.5-7.0 lbf); conditions: 500 ppb of MCP, ideal = between 2.5 and 7.0 lbf
Procedure: as §6, §7, §8
as §2, with “18” for “36”, “68” for “137”, “68” for “91”
as §3, §9, §10
as §4, with “were” for “where”
as §5

Papayas ‘Golden’ [4] = test: Example 3: pulp firmness, external, MAP bags with different perforations; conditions: for External Firmness - Difference with Untreated Fruits (Δ) / Pulp Firmness - External: 100 ppb of MCP; for External Firmness - Difference with Untreated Fruits (Δ): 5 Days @ 24° C.
Procedure: Papayas ‘Golden’ were harvested in Linhares—Espírito Santo—Brazil. The fruits were packed in MAP Bags and put in cardboard boxes.
as §1
as §2, with “40” for “36”, “One of” for “One”, “152” for “137”, “8” for “91”
as §3, with “kg,” for “kg”, “MAP-bags,” for “bags,”
All papayas were kept at cold temperature (11° C.) during 14 days and after that the fruits (packed in MAP bags or not) were put in room temperature (24° C.) during 5 days.
One day after harvest, when the papayas had around 30 lbf of average firmness, each treatment set was marked and placed in a hermetical chamber at cold temperature (11° C.). All chambers were of equal size and packed the same way. Treatment was for 12 hours.
In the chambers, SmartFresh™ was placed at the beginning of the treatment period for the 5 “MCP” treatment groups. The amount of SmartFresh™ was chosen to achieve the indicated concentration of 1-methylcyclopropene in the atmosphere of the chamber.
as §11
For External Firmness, the papayas had the skin removed with a peeler and the pulp firmness was measured with a Firmness Texture Analyzer (FTA) with a probe of 8 mm.

[5] = MAP bag, 26 days at 11° C. then 0 days @ 22° C.
[6] = MAP bag, 26 days at 11° C. then 4 days @ 22° C.
[7] = MAP bag, 26 days at 11° C. then 8 days @ 22° C.
[8] = No Bag, 26 days at 11° C. then 0 days @ 22° C.
[9] = No Bag, 26 days at 11° C. then 4 days @ 22° C.
[10] = No Bag, 26 days at 11° C. then 8 days @ 22° C.

Question: For `CC1=CC1` [MCP, 1-methylcyclopropene], which “Percentage of fruits with ideal internal pulp firmness” value (shortened to “Percentage of fruits”) (Papayas ‘Golden’ [1]; MAP bag, 27 days at 11° C. then 0 days @ 22° C.) is on record?
Answer: 52.38%

Question: What about the “Percentage of fruits” value (Papayas ‘Golden’ [1]; MAP bag, 27 days at 11° C. then 4 days @ 22° C.) of the same compound?
Answer: 44.44%

Question: What about the “Percentage of fruits” value (Papayas ‘Golden’ [1]; MAP bag, 27 days at 11° C. then 8 days @ 22° C.) of the same compound?
Answer: 13.88%

Question: What about the “Percentage of fruits” value (Papayas ‘Golden’ [1]; No Bag, 27 days at 11° C. then 0 days @ 22° C.) of the same compound?
Answer: 1.19%

Question: And the “Percentage of fruits” value (Papayas ‘Golden’ [1]; No Bag, 27 days at 11° C. then 4 days @ 22° C.)?
Answer: 11.11%

Question: What about the “Percentage of fruits” value (Papayas ‘Golden’ [1]; No Bag, 27 days at 11° C. then 8 days @ 22° C.) of the same compound?
Answer: 58.33%

Question: What about the “external firmness during shelf-life, in words” value (Papayas ‘Golden’ [2]; 1-MCP alone, compared to the present invention (1-MCP + MAP)) of the same compound?
Answer: lower efficiency to maintain external firmness

Question: What about the “Pulp Firmness - External” value (Papayas ‘Golden’ [2]; [5]) of the same compound?
Answer: 3.84 lbf

Question: And the “Pulp Firmness - External” value (Papayas ‘Golden’ [2]; [6])?
Answer: 1.98 lbf

Question: What about the “Pulp Firmness - External” value (Papayas ‘Golden’ [2]; [7]) of the same compound?
Answer: 1.30 lbf

Question: And the “Pulp Firmness - External” value (Papayas ‘Golden’ [2]; [8])?
Answer: 3.03 lbf

Question: What about the “Pulp Firmness - External” value (Papayas ‘Golden’ [2]; [9]) of the same compound?
Answer: 1.88 lbf

Question: What about the “Pulp Firmness - External” value (Papayas ‘Golden’ [2]; [10]) of the same compound?
Answer: 1.11 lbf

Question: And the “Percentage of fruits” value (Papayas ‘Golden’ [3]; [5])?
Answer: 77.08%

Question: What about the “Percentage of fruits” value (Papayas ‘Golden’ [3]; [6]) of the same compound?
Answer: 28.57%

Question: And the “Percentage of fruits” value (Papayas ‘Golden’ [3]; [7])?
Answer: 0.00%

Question: What about the “Percentage of fruits” value (Papayas ‘Golden’ [3]; [8]) of the same compound?
Answer: 60.87%

Question: What about the “Percentage of fruits” value (Papayas ‘Golden’ [3]; [9]) of the same compound?
Answer: 12.90%

Question: What about the “Percentage of fruits” value (Papayas ‘Golden’ [3]; [10]) of the same compound?
Answer: 0.00%

Question: And the “external firmness during shelf-life, in words” value (Papayas ‘Golden’ [4]; 1-MCP alone (no MAP))?
Answer: not high enough external firmness

Question: What about the “External Firmness - Difference with Untreated Fruits (Δ)” value (shortened to “External Firmness - Difference … (Δ)”) (Papayas ‘Golden’ [4]; 24 Perf. MAP bag) of the same compound?
Answer: 2.59 lbf

Question: And the “Pulp Firmness - External” value (Papayas ‘Golden’ [4]; 24 Perf. MAP bag, 14 days at 11° C. then 3 days @ 24° C.)?
Answer: 5.23 lbf

Question: What about the “Pulp Firmness - External” value (Papayas ‘Golden’ [4]; 24 Perf. MAP bag, 14 days at 11° C. then 5 days @ 24° C.) of the same compound?
Answer: 4.12 lbf

Question: What about the “External Firmness - Difference … (Δ)” value (Papayas ‘Golden’ [4]; 48 Perf. MAP bag) of the same compound?
Answer: 0.89 lbf

Question: And the “Pulp Firmness - External” value (Papayas ‘Golden’ [4]; 48 Perf. MAP bag, 14 days at 11° C. then 3 days @ 24° C.)?
Answer: 3.68 lbf

Question: And the “Pulp Firmness - External” value (Papayas ‘Golden’ [4]; 48 Perf. MAP bag, 14 days at 11° C. then 5 days @ 24° C.)?
Answer: 2.42 lbf

Question: What about the “External Firmness - Difference … (Δ)” value (Papayas ‘Golden’ [4]; 90 Perf. MAP bag) of the same compound?
Answer: 1.75 lbf

Question: What about the “Pulp Firmness - External” value (Papayas ‘Golden’ [4]; 90 Perf. MAP bag, 14 days at 11° C. then 3 days @ 24° C.) of the same compound?
Answer: 3.94 lbf

Question: And the “Pulp Firmness - External” value (Papayas ‘Golden’ [4]; 90 Perf. MAP bag, 14 days at 11° C. then 5 days @ 24° C.)?
Answer: 3.28 lbf

Question: What about the “External Firmness - Difference … (Δ)” value (Papayas ‘Golden’ [4]; 180 Perf. MAP bag) of the same compound?
Answer: 1.27 lbf

Question: And the “Pulp Firmness - External” value (Papayas ‘Golden’ [4]; 180 Perf. MAP bag, 14 days at 11° C. then 3 days @ 24° C.)?
Answer: 3.64 lbf

Question: And the “Pulp Firmness - External” value (Papayas ‘Golden’ [4]; 180 Perf. MAP bag, 14 days at 11° C. then 5 days @ 24° C.)?
Answer: 2.80 lbf

Question: And the “External Firmness - Difference … (Δ)” value (Papayas ‘Golden’ [4]; No Bag)?
Answer: 1.09 lbf

Question: What about the “Pulp Firmness - External” value (Papayas ‘Golden’ [4]; No Bag, 14 days at 11° C. then 3 days @ 24° C.) of the same compound?
Answer: 6.23 lbf

Question: And the “Pulp Firmness - External” value (Papayas ‘Golden’ [4]; No Bag, 14 days at 11° C. then 5 days @ 24° C.)?
Answer: 2.62 lbf
